Values of other authors, collected in US20060201391A1, “Compositions having sustained-release insect repellency” (priority 2005, published 2006).

Test system: mosquitoes, stable flies and deer ticks

In the case of `C[C@H]1COC(=O)[C@@H]2[C@@H]1CC[C@@H]2C` [DHN, dihydronepetalactone], the “insect repellency compared with DEET” value is given as “substantially equivalent to DEET”.
